Results taken from US20130310427A1, “INHIBITORS OF HCV NS5A PROTEIN” (PRESIDIO PHARMACEUTICALS, INC., priority 2010, published 2013).

Test system: bicistronic genotype 1b replicon in Huh 7 cells (1b_Huh-Luc/Neo-ET cell line)
Assay: HCV replicon assay, luciferase enzyme activity readout
Assay type: cell-based
Conditions: Hepatitis C virus, 1b_Huh-Luc/Neo-ET replicon cells, 72 h incubation, Bright-Glo luciferase readout, EC50 ranges, read-out: Inhibition of HCV genotype 1b
Experimental: Biological activity of the compounds of the invention was determined using an HCV replicon assay. The 1b_Huh-Luc/Neo-ET cell line persistently expressing a bicistronic genotype 1b replicon in Huh 7 cells was obtained from ReBLikon GMBH. This cell line was used to test compound inhibition using luciferase enzyme activity readout as a measurement of compound inhibition of replicon levels.
On Day 1 (the day after plating), each compound is added in triplicate to the cells. Plates incubated for 72 h prior to running the luciferase assay. Enzyme activity was measured using a Bright-Glo Kit (cat. number E2620) manufactured by Promega Corporation. The following equation was used to generate a percent control value for each compound.
% Control=(Average Compound Value/Average Control)*100
The EC50 value was determined using GraphPad Prism and the following equation:
Y=Bottom+(Top−Bottom)/(1+10̂((Log IC50−X)*HillSlope))
EC50 values of compounds are repeated several times in the replicon assay.

SMILES | EC50
COC(=O)N[C@H](C(=O)N1CC(C2CC2)=C[C@H]1c1ncc(-c2ccc(-c3ccc4cc(-c5cnc([C@@H]6CCCN6C(=O)[C@@H](NC(=O)OC)C(C)C)[nH]5)ccc4c3)cc2)[nH]1)C(C)C [Compound 105] | < 1 nM
COC(=O)N[C@H](C(=O)N1CC(C)=C[C@H]1c1ncc(-c2ccc3c(c2)Oc2ccc(-c4cnc([C@@H]5C=C(C)CN5C(=O)[C@@H](NC(=O)OC)C(C)C)[nH]4)cc2C3(C)C)[nH]1)C(C)C [Compound 112] | < 1 nM
COC(=O)N[C@H](C(=O)N1CC(C)=C[C@H]1c1ncc(-c2ccc3cc(-c4ccc5nc([C@@H]6CCCN6C(=O)[C@@H](NC(=O)OC)C(C)C)[nH]c5c4)ccc3c2)[nH]1)C(C)C [Compound 119] | < 1 nM
COC(=O)N[C@H](C(=O)N1CC(C)=C[C@H]1c1ncc(-c2ccc3c(=O)c4cc(-c5cnc([C@@H]6C=C(C)CN6C(=O)[C@@H](NC(=O)OC)C(C)C)[nH]5)ccc4oc3c2)[nH]1)C(C)C [Compound 113] | < 1 nM
COC(=O)N[C@H](C(=O)N1CC(C)=C[C@H]1c1ncc(-c2ccc(C#Cc3ccc(-c4cnc([C@@H]5C=C(C)CN5C(=O)[C@@H](NC(=O)OC)C(C)C)[nH]4)cc3)cc2)[nH]1)C(C)C [Compound 111] | < 1 nM
COC(=O)N[C@H](C(=O)N1CC(C)=CC1c1ncc(-c2ccc(-c3ccc4cc(-c5cnc([C@@H]6CCCN6C(=O)[C@@H](NC(=O)OC)C(C)C)[nH]5)ccc4c3)cc2)[nH]1)C(C)C (stereo partly shown) [Compound 101] | < 1 nM
COC(=O)N[C@H](C(=O)N1CC(C2CC2)=C[C@H]1c1nc2ccc(C#Cc3ccc(-c4cnc([C@@H]5CCCN5C(=O)[C@@H](NC(=O)OC)C(C)C)[nH]4)cc3)cc2[nH]1)C(C)C [Compound 115] | < 1 nM
COC(=O)N[C@H](C(=O)N1CC(C)=C[C@H]1c1ncc(-c2ccc3cc(C#Cc4cnc([C@@H]5CCCN5C(=O)[C@@H](NC(=O)OC)C(C)C)[nH]4)ccc3c2)[nH]1)C(C)C [Compound 123] | < 1 nM
COC(=O)N[C@H](C(=O)N1CC(C2CC2)=C[C@H]1c1nc2ccc(-c3ccc4cc(-c5cnc([C@@H]6CCCN6C(=O)[C@@H](NC(=O)OC)C(C)C)[nH]5)ccc4c3)cc2[nH]1)C(C)C [Compound 114] | < 1 nM
COC(=O)N[C@H](C(=O)N1CC(C)=C[C@H]1c1nc2ccc(C#Cc3ccc(-c4cnc([C@@H]5CCCN5C(=O)[C@@H](NC(=O)OC)C(C)C)[nH]4)cc3)cc2[nH]1)C(C)C [Compound 104] | < 1 nM
COC(=O)N[C@H](C(=O)N1CC(C)=C[C@H]1c1ncc(-c2ccc3cc(-c4ccc5nc([C@@H]6C=C(C7CC7)CN6C(=O)[C@@H](NC(=O)OC)C(C)C)[nH]c5c4)ccc3c2)[nH]1)C(C)C [Compound 122] | < 1 nM
COC(=O)N[C@H](C(=O)N1CC(C2CC2)=C[C@H]1c1ncc(-c2ccc(C#Cc3ccc(-c4cnc([C@@H]5CCCN5C(=O)[C@@H](NC(=O)OC)C(C)C)[nH]4)cc3)cc2)[nH]1)C(C)C [Compound 110] | < 1 nM
COC(=O)N[C@H](C(=O)N1CC(C2CC2)=C[C@@H]1c1nc2ccc(C#Cc3ccc(-c4cnc([C@@H]5CCCN5C(=O)[C@@H](NC(=O)OC)C(C)C)[nH]4)cc3)cc2[nH]1)C(C)C [Compound 116] | 1 to 9.9 nM
COC(=O)N[C@H](C(=O)N1CC(C)=C[C@H]1c1ncc(-c2ccc(C#Cc3ccc(-c4cnc([C@@H]5CCCN5C(=O)[C@@H](NC(=O)OC)C(C)C)[nH]4)cc3)cc2)[nH]1)C(C)C [Compound 103] | < 1 nM
COC(=O)N[C@H](C(=O)N1CC(C)=C[C@H]1c1ncc(-c2ccc(C#Cc3ccc4c(ccc5nc([C@@H]6CCCN6C(=O)[C@@H](NC(=O)OC)C(C)C)[nH]c54)c3)cc2)[nH]1)C(C)C [Compound 118] | < 1 nM
COC(=O)N[C@H](C(=O)N1CC(C)=C[C@H]1c1ncc(-c2ccc(-c3ccc4cc(-c5cnc([C@@H]6C=C(C)CN6C(=O)[C@@H](NC(=O)OC)C(C)C)[nH]5)ccc4c3)cc2)[nH]1)C(C)C [Compound 121] | < 1 nM
COC(=O)N[C@H](C(=O)N1CC(C2CC2)=C[C@H]1c1ncc(-c2ccc(C#Cc3ccc4nc([C@@H]5CCCN5C(=O)[C@@H](NC(=O)OC)C(C)C)[nH]c4c3)cc2)[nH]1)C(C)C [Compound 109] | < 1 nM
COC(=O)N[C@H](C(=O)N1CC(C)=C[C@H]1c1ncc(-c2ccc(C#Cc3ccc4nc([C@@H]5CCCN5C(=O)[C@@H](NC(=O)OC)C(C)C)[nH]c4c3)cc2)[nH]1)C(C)C [Compound 102] | < 1 nM
COC(=O)N[C@H](C(=O)N1CC(C)=C[C@H]1c1ncc(-c2ccc3cc(-c4ccc(-c5cnc([C@@H]6CCCN6C(=O)[C@@H](NC(=O)OC)C(C)C)[nH]5)cc4)ccc3c2)[nH]1)C(C)C [Compound 120] | < 1 nM
